pIC50: −log10 of the molar value.

One test has as its target T1, human Syk (GST-Syk) (Homo sapiens, UniProt P43405).
T1 construct: A cDNA fragment encoding human Syk openreading frame was cloned; made in house; host or cells: Sf21 insect cells (baculovirus, transfer vector pAcG2T)
As to the kind of experiment: Syk tyrosine kinase inhibitory assay. Type of test: biochemical. Conditions: Table 11; read-out: Activity grade. Put shortly: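 Readout: streptavidin-captured biotin-AL peptide probed with europium-4G10 anti-phosphotyrosine, time-resolved fluorescence (ex 340/em 615 nm). Reaction ran 1 h at room temperature with 30 μM ATP, 3 μM peptide, 0.65 nM Sf21-expressed GST-Syk and 0.25% DMSO, pH 8.0.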
On to `COc1ccc(Nc2nc(-c3ccc(NCCCN4CCOCC4)c(OC)c3)cc3nccn23)cc1` [Example 12-38], for which the pIC50 was > 6.30.

As for `COc1cc(-c2cc3nccn3c(Nc3ccc(Cl)cn3)n2)ccc1N1CCOCC1` [Example 12-48], the pIC50 was > 6.30.

As to `COc1cc(-c2cc3nccn3c(Nc3ccc(C)cc3)n2)ccc1N1CCOCC1` [Example 12-47], the pIC50 is > 6.30.

With `CCOCCOc1cc(-c2cc3nccn3c(Nc3ccccc3)n2)ccc1OC` [Example 12-28], the pIC50 was > 6.30.

Regarding `COc1ccc(Nc2nc(-c3ccc(N(C)CCCN4CCOCC4)c(OC)c3)cc3nccn23)cc1` [Example 12-55], the pIC50 is > 6.30.

Still in this test, the particulars now being: Table 13; read-out: Activity grade.
Turning to `CCOC(=O)C(C)Sc1nc(-c2ccc(OC)c(OC)c2)cc2nccn12` (centres unmarked) [Example 14-14], the pIC50 was 5.70 to 6.30.

On to `COc1ccc(-c2cc3ncnn3c(Oc3ccc(CCC(=O)O)cc3)n2)cc1OC` [Example 14-12], for which the pIC50 was 5.70 to 6.30.

Regarding `COc1ccc(-c2cc3nccn3c(Oc3ccc(Br)cc3)n2)cc1OC` [Example 14-6], the pIC50 was 5.70 to 6.30.

Regarding `COc1ccc(-c2cc3ncnn3c(Sc3ccc(NCC(=O)O)cc3)n2)cc1OC` [Example 14-11], the pIC50 is > 6.30.

Still in this test, the particulars now being: Table 17; IC50 classes; read-out: Activity grade.
Take `COc1cc(-c2cc3nccn3c(Nc3ncccc3C(N)=O)n2)ccc1N1CCOCC1` [Example 38]: the pIC50 is > 6.30.

On to `COc1ccc(-c2cc3nccn3c(Nc3ccc(N(C)C)cc3C(N)=O)n2)cc1OC` [Example 32], for which the pIC50 was > 6.30.

The test is the same for the next values; noted with them: in vitro; compounds as yielded by solid phase synthesis, purity about 40 to 90%.
For `COc1ccc(-c2cc3nccn3c(N3CCC(C(=O)c4ccc(F)cc4)CC3)n2)cc1OC` [Example 9-61], the “Activity grade (IC50 class)” value is “C-D”.

The test is the same for the next values; noted with them: in vitro; compounds as yielded by solid phase synthesis, purity about 40 to 90%; read-out: Activity grade (IC50 class).
With `COc1ccc(Nc2nc(-c3ccc(OC)c(OC)c3)cc3nccn23)c(C(=O)O)c1` [Example 11-75], the pIC50 is > 6.30.

Regarding `CCSc1nc(-c2ccc(OC(=O)OC)c(OC)c2)cc2nccn12` [Example 3-11], the pIC50 was > 6.30.

As to `CCSc1nc(-c2ccc(OC(=O)C(C)C)c(OC)c2)cc2nccn12` [Example 3-8], the pIC50 is 5.70 to 6.30.

Turning to `COc1ccc(-c2cc3nccn3c(Sc3ccc(N)cc3)n2)cc1OC` [Example 13-4], the pIC50 is > 6.30.

Take `COc1ccc(-c2cc3nccn3c(Nc3cccc([N+](=O)[O-])c3)n2)cc1OC` [Example 11-70]: the pIC50 was > 6.30.

As for `COc1cccc(N2CCN(c3nc(-c4ccc(OC)c(OC)c4)cc4nccn34)CC2)c1` [Example 9-43], the pIC50 was 5.00 to 5.70.

Regarding `CCSc1nc(-c2ccc(OC)c(OCCCN3CC[C@H](N(C)C)C3)c2)cc2nccn12` [Example 5-5], the pIC50 was 5.70 to 6.30.

Consider `CCSc1nc(-c2ccc(OCCCN3CCOCC3)c(OC)c2)cc2nccn12` [Example 5-1], for which the pIC50 was > 6.30.

Consider `CCSc1nc(-c2ccc(OC)c(OC)c2)cc2nc(C(=O)OC)cn12` [Example 1-1], for which the pIC50 is 5.70 to 6.30.

For `CCSc1nc(-c2ccc(OC)c(OC3CCCCC3)c2)cc2nccn12` [Example 4-4], the pIC50 was 5.70 to 6.30.

For the molecule `COc1ccc(-c2cc3nccn3c(Nc3ccc(S(=O)(=O)N4CCCC4)cc3)n2)cc1OC` [Example 11-115], the pIC50 was > 6.30.

On to `COc1ccc(-c2cc3nccn3c(N3CC[C@H](N(C)C)C3)n2)cc1OC` [Example 9-78], for which the pIC50 was 5.00 to 5.70.

With `COc1ccc(-c2cc3nccn3c(Nc3ccc(C)cc3)n2)cc1OC` [Example 11-9], the pIC50 was > 6.30.

Consider `COc1ccc(-c2cc3nccn3c(N3C(=O)c4ccccc43)n2)cc1OC` [Example 9], for which the pIC50 is 5.00 to 5.70.

For the molecule `CCN(Cc1ccncc1)c1nc(-c2ccc(OC)c(OC)c2)cc2nccn12` [Example 9-52], the pIC50 was 5.70 to 6.30.

Regarding `COC(=O)CCCc1ccc(Nc2nc(-c3ccc(OC)c(OC)c3)cc3nccn23)cc1` [Example 9-25], the pIC50 is 5.70 to 6.30.

Turning to `COc1ccc(-c2cc3nccn3c(Nc3ccc(Cl)cc3)n2)cc1OC` [Example 11-61], the pIC50 was > 6.30.

For the molecule `COc1ccc(-c2cc3nccn3c(Nc3cccc(S(=O)(=O)CCO)c3)n2)cc1OC` [Example 11-27], the pIC50 is > 6.30.

Consider `CNS(=O)(=O)c1ccccc1Nc1nc(-c2ccc(OC)c(OC)c2)cc2nccn12` [Example 11-122], for which the pIC50 was > 6.30.

For the molecule `CCSc1nc(-c2ccc(OC)c(OCCCN3CCOCC3)c2)cc2nccn12` [Example 5-11], the pIC50 was 5.70 to 6.30.

Turning to `COc1ccc(Nc2nc(-c3ccc(OCCN4CCOCC4)c(OC)c3)cc3nccn23)cc1` [Example 9-96], the pIC50 was > 6.30.

With `COC(=O)C1CCc2cc(Sc3nc(-c4ccc(OC)c(OC)c4)cc4nccn34)ccc2C1` (centres unmarked) [Example 13-23], the pIC50 is 5.70 to 6.30.

Consider `COc1ccc(-c2cc3nccn3c(Nc3ccc(NCCN4CCOCC4)cc3)n2)cc1OC` [Example 11-82], for which the pIC50 was > 6.30.

Turning to `CCSc1nc(-c2ccc(OC)c(OCCCN3CCSCC3)c2)cc2nccn12` [Example 5-10], the pIC50 is 5.70 to 6.30.

As for `COc1ccc(-c2cc3nccn3c(N(C)c3ccccc3)n2)cc1OC` [Example 11-18], the pIC50 was > 6.30.

Turning to `CCSc1nc(-c2ccc(OCCCN3CCSCC3)c(OC)c2)cc2nccn12` [Example 5-9], the pIC50 was > 6.30.

As to `CCOCCOc1cc(-c2cc3nccn3c(SCC)n2)ccc1OC` [Example 4-6], the pIC50 is > 6.30.

Consider `C=CCSc1nc(-c2ccc(OC)c(OC)c2)cc2nccn12` [Example 9-8], for which the pIC50 was > 6.30.

Consider `COc1ccc(-c2cc3nccn3c(Nc3ccc(OC(F)(F)F)cc3)n2)cc1OC` [Example 11-95], for which the pIC50 was > 6.30.

For `CCSc1nc(-c2ccc(OCCCN3CCC(C(N)=O)CC3)c(OC)c2)cc2nccn12` [Example 5-13], the pIC50 was > 6.30.

With `COc1ccc(-c2cc3nccn3c(Nc3ccc(CCC(=O)O)cc3C(N)=O)n2)cc1OC` [Example 11-104], the pIC50 is > 6.30.

As to `COc1ccc(-c2cc3nccn3c(Nc3ccc(F)c(F)c3)n2)cc1OC` [Example 11-57], the pIC50 is > 6.30.

Consider `COc1ccc(-c2cc3nccn3c(Nc3ccc(SCC(=O)O)cc3)n2)cc1OC` [Example 11-20], for which the pIC50 was > 6.30.

Take `CCSc1nc(-c2cccc(OC)c2)cc2nccn12` [Example 8-1]: the pIC50 is 5.70 to 6.30.

For the molecule `CCSc1nc(-c2ccc(OCCCN(C)CC)c(OC)c2)cc2nccn12` [Example 5-2], the pIC50 was > 6.30.

On to `COc1ccc(-c2cc3nccn3c(Sc3c(C)cccc3C)n2)cc1OC` [Example 13-9], for which the pIC50 is 5.00 to 5.70.

For `COC(=O)C1CCN(c2nc(-c3ccc(OC)c(OC)c3)cc3nccn23)CC1` [Example 9-67], the pIC50 was 5.00 to 5.70.

Take `COc1ccc(-c2cc3nccn3c(Nc3ccc(S(N)(=O)=O)cc3)n2)cc1OC` [Example 11-76]: the pIC50 is > 6.30.

For the molecule `COc1ccc(-c2cc3ncnn3c(Nc3ccc(CCC(=O)O)cc3C(N)=O)n2)cc1OC` [Example 11-101], the pIC50 is > 6.30.

Take `COc1ccc(Nc2nc(-c3ccc(OC)c(OC)c3)cc3nccn23)cc1O` [Example 11-92]: the pIC50 is > 6.30.

Take `CCSc1nc(-c2ccc(OCCCN(C)CCO)c(OC)c2)cc2nccn12` [Example 5-3]: the pIC50 was > 6.30.

For `CCSc1nc(-c2ccc(OC)nc2)cc2nccn12` [Example 1-2], the pIC50 is 5.00 to 5.70.

Turning to `COc1ccc(-c2cc3nccn3c(Nc3ccccc3)n2)cc1OC` [Example 11-16], the pIC50 was > 6.30.

Take `COc1ccc(-c2cc3nccn3c(Sc3ccc(CCC(=O)O)cc3)n2)cc1O` [Example 13-24]: the pIC50 was > 6.30.

For the origin of these results see patent US6911443B2 (Bayer Aktiengesellschaft, priority 2000, dated 2005).
